# The kinase profiling compilation of Christmann-Franck et al. (2016)
# Legend:
# Assay in all cases: Caliper, Mobility shift assay off-chip
# [1] = target: AURKC (human) (UniProt Q9UQB9)
# [2] = target: CAMK1 (human) (UniProt Q14012)
# [3] = target: CAMK2D (human) (UniProt Q13557)
# [4] = target: CDC7 (human) (UniProt O00311)
# [5] = target: CDK9 (human) (UniProt P50750)
# [6] = target: DYRK1B (human) (UniProt Q9Y463)
# [7] = target: EEF2K (human) (UniProt O00418)
# [8] = target: EPHA5 (human) (UniProt P54756)
# [9] = target: FGFR2 (human) (UniProt P21802)
# [10] = target: FGFR4 (human) (UniProt P22455)
# [11] = target: GSG2 (human) (UniProt Q8TF76)
# [12] = target: IRAK1 (human) (UniProt P51617)
# [13] = target: JAK3 JH1 JH2 (human) (UniProt P52333)
# [14] = target: KDR (human) (UniProt P35968)
# [15] = target: MAPK11 (human) (UniProt Q15759)
# [16] = target: MARK3 (human) (UniProt P27448)
# [17] = target: NEK1 (human) (UniProt Q96PY6)
# [18] = target: PAK6 (human) (UniProt Q9NQU5)
# [19] = target: PGK1 (human) (UniProt P00558)
# [20] = target: PHKG2 (human) (UniProt P15735)
# [21] = target: PIM2 (human) (UniProt Q9P1W9)
# [22] = target: PIM3 (human) (UniProt Q86V86)
# [23] = target: PRKAA1 (human) (UniProt Q13131)
# [24] = target: PRKACG (human) (UniProt P22612)
# [25] = target: PRKCE (human) (UniProt Q02156)
# [26] = target: PRKCQ (human) (UniProt Q04759)
# [27] = target: PRKD1 (human) (UniProt Q15139)
# [28] = target: RPS6KA6 KD1 KD2 (human) (UniProt Q9UK32)
# [29] = target: RPS6KB1 (human) (UniProt P23443)
# [30] = target: STK38 (human) (UniProt Q15208)
# [31] = target: TNIK (human) (UniProt Q9UKE5)
# [32] = target: TSSK3 (human) (UniProt Q96PN8)
# [33] = target: TYK2 JH1 JH2 (human) (UniProt P29597)
# [34] = target: TYRO3 (human) (UniProt Q06418)
# STK38 (human), sequence (Q15208 whole entry, looked up): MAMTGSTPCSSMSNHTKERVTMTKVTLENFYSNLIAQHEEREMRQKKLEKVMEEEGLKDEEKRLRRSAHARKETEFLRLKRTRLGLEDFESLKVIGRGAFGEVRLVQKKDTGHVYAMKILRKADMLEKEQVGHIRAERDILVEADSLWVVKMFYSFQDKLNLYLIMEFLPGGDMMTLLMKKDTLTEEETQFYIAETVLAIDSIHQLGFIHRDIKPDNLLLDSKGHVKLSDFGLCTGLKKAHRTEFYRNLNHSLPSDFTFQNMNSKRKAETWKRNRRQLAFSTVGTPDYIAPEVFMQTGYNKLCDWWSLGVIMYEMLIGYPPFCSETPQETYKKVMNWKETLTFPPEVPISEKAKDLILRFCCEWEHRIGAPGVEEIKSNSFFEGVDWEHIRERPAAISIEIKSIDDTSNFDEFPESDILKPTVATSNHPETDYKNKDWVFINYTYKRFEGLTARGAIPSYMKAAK
# CAMK1 (human), sequence (Q14012 whole entry, looked up): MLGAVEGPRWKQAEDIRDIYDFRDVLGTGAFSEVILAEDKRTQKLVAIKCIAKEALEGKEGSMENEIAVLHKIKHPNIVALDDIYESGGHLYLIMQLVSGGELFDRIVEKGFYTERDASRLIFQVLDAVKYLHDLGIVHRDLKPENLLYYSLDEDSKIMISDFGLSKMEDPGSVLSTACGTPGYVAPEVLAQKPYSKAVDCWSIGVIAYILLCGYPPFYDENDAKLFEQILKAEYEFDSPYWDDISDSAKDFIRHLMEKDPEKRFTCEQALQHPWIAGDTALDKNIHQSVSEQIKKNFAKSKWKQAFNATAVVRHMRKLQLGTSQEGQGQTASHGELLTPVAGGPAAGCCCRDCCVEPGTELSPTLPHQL
# EEF2K (human), sequence (O00418 whole entry, looked up): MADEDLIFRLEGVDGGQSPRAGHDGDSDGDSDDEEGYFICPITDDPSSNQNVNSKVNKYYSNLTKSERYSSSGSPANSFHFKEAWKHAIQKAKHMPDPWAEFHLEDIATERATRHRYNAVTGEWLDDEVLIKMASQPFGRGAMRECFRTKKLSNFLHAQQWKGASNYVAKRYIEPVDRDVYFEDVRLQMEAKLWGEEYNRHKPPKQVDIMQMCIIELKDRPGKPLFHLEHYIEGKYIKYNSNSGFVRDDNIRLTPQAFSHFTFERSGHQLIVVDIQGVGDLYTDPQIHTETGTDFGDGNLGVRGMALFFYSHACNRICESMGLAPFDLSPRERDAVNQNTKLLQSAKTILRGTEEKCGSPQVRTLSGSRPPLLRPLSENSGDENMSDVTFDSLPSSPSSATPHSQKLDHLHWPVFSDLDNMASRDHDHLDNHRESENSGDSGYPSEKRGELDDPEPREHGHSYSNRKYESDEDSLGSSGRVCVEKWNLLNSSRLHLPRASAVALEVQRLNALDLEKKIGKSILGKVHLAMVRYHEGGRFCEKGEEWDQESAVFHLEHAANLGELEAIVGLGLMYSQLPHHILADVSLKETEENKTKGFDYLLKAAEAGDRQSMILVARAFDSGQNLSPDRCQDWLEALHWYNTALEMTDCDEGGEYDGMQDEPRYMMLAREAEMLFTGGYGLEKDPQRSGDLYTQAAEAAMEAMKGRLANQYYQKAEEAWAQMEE
# PGK1 (human), sequence (P00558 whole entry, looked up): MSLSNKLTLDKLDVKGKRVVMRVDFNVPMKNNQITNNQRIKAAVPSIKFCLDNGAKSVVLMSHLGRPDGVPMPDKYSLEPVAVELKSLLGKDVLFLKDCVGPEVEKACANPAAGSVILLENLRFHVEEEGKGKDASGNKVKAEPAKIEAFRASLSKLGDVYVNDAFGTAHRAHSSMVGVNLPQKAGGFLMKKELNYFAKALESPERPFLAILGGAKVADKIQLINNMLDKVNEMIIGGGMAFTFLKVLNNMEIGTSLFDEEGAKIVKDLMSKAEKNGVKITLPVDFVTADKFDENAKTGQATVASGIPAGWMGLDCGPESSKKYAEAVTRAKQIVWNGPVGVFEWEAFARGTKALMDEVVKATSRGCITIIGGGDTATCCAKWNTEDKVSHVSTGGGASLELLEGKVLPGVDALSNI
# MAPK11 (human), sequence (Q15759 whole entry, looked up): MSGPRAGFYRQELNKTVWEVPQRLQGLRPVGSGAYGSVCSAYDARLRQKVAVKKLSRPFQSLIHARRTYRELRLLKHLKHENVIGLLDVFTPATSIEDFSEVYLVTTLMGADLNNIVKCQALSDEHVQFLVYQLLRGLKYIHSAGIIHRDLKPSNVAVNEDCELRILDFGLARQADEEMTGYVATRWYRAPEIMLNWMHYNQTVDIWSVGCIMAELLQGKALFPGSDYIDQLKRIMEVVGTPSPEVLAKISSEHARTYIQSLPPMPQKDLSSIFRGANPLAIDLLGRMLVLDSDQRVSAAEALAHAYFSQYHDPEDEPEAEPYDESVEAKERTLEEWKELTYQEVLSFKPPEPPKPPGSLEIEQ
# MARK3 (human), sequence (P27448 whole entry, looked up): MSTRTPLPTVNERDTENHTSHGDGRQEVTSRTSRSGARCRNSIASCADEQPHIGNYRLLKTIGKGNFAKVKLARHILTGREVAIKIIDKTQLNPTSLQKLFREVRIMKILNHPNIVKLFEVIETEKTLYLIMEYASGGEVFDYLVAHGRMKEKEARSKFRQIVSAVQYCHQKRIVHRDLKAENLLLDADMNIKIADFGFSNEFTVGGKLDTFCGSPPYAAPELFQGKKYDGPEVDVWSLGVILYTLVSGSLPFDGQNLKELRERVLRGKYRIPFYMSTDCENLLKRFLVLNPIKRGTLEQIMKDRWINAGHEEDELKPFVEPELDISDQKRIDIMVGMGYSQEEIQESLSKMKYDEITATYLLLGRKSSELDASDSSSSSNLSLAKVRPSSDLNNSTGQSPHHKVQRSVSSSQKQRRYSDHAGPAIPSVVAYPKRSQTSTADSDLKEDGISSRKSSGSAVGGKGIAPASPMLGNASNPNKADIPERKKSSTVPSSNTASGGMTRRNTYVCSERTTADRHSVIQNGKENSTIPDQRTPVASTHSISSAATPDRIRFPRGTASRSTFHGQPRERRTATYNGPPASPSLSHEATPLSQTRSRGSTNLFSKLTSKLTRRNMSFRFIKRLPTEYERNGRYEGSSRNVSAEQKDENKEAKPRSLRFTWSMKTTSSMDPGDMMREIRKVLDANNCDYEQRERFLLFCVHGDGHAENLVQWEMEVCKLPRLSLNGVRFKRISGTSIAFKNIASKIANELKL
# CAMK2D (human), sequence (Q13557 whole entry, looked up): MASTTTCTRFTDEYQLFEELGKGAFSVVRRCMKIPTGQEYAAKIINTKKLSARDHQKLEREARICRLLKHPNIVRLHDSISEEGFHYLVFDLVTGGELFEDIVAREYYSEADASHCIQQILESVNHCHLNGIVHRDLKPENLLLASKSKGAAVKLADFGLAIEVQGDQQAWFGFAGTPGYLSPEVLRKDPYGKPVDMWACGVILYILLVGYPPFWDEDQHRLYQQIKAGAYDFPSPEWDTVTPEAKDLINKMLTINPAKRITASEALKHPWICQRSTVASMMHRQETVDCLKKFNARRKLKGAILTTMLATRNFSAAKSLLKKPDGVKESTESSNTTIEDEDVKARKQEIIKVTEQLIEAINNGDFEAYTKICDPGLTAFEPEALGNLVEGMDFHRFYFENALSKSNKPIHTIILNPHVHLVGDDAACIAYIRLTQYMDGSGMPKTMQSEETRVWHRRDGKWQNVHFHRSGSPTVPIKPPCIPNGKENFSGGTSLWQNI
# PRKCQ (human), sequence (Q04759 whole entry, looked up): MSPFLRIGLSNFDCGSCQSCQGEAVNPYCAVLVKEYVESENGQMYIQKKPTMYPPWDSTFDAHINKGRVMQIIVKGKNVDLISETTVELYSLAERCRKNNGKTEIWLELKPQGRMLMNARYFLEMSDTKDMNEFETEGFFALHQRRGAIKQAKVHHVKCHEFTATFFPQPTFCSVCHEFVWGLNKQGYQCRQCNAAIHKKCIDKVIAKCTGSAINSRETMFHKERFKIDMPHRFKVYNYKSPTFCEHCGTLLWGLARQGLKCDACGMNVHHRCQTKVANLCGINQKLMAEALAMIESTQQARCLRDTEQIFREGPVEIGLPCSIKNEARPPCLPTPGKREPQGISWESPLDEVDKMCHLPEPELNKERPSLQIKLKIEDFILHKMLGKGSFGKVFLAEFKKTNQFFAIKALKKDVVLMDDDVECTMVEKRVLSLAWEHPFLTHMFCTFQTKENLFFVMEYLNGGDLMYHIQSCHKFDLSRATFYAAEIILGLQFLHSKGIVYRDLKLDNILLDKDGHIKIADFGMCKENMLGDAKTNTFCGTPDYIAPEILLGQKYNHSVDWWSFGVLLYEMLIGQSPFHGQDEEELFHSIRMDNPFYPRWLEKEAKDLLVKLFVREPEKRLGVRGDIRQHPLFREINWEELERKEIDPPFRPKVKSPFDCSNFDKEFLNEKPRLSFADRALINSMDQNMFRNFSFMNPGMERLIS
# PRKACG (human), sequence (P22612 whole entry, looked up): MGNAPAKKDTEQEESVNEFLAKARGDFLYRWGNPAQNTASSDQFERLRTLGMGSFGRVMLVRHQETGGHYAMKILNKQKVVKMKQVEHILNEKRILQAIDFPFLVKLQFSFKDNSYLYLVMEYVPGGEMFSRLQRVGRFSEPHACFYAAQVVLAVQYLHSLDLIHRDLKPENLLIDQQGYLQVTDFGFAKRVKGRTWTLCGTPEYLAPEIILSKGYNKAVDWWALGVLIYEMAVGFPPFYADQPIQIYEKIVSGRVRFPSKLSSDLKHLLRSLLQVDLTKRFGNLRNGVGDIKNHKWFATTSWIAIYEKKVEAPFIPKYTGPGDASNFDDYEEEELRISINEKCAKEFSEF
compound,measurement,setting,value
Cc1ccc(Nc2nccc(N(C)c3ccc4c(C)n(C)nc4c3)n2)cc1S(N)(=O)=O,inhibition,[1]; compound 0.02 µM,-0.4%
same,inhibition,[1]; compound 0.2 µM,21.5%
same,inhibition,[2]; compound 0.02 µM,-2.3%
same,inhibition,[2]; compound 0.2 µM,1.4%
same,inhibition,[3]; compound 0.02 µM,4.9%
same,inhibition,[3]; compound 0.2 µM,4.6%
same,inhibition,[4]; compound 0.02 µM,-1.5%
same,inhibition,[4]; compound 0.2 µM,-3.3%
same,inhibition,[5]; compound 0.02 µM,-2.5%
same,inhibition,[5]; compound 0.2 µM,5.1%
same,inhibition,[6]; compound 0.02 µM,-4.3%
same,inhibition,[6]; compound 0.2 µM,7.4%
same,inhibition,[7]; compound 0.02 µM,2.9%
same,inhibition,[7]; compound 0.2 µM,4.7%
same,inhibition,[8]; compound 0.02 µM,-2.7%
same,inhibition,[8]; compound 0.2 µM,4.7%
same,inhibition,[9]; compound 0.02 µM,29%
same,inhibition,[9]; compound 0.2 µM,82.6%
same,inhibition,[10]; compound 0.02 µM,0.7%
same,inhibition,[10]; compound 0.2 µM,29.7%
same,inhibition,[11]; compound 0.02 µM,-1.1%
same,inhibition,[11]; compound 0.2 µM,4.3%
same,inhibition,[12]; compound 0.02 µM,-17.4%
same,inhibition,[12]; compound 0.2 µM,-14.6%
same,inhibition,[13]; compound 0.02 µM,4.1%
same,inhibition,[13]; compound 0.2 µM,7.7%
same,inhibition,[14]; compound 0.02 µM,81.6%
same,inhibition,[14]; compound 0.2 µM,99.2%
same,inhibition,[15]; compound 0.02 µM,-6.7%
same,inhibition,[15]; compound 0.2 µM,0.9%
same,inhibition,[16]; compound 0.02 µM,1.7%
same,inhibition,[16]; compound 0.2 µM,-3.6%
same,inhibition,[17]; compound 0.02 µM,-4.7%
same,inhibition,[17]; compound 0.2 µM,3.5%
same,inhibition,[18]; compound 0.02 µM,-5.8%
same,inhibition,[18]; compound 0.2 µM,-5.8%
same,inhibition,[19]; compound 0.02 µM,-5.4%
same,inhibition,[19]; compound 0.2 µM,-2.2%
same,inhibition,[20]; compound 0.02 µM,-3.5%
same,inhibition,[20]; compound 0.2 µM,-1.8%
same,inhibition,[21]; compound 0.02 µM,2.7%
same,inhibition,[21]; compound 0.2 µM,6.8%
same,inhibition,[22]; compound 0.02 µM,-3.4%
same,inhibition,[22]; compound 0.2 µM,-4.2%
same,inhibition,[23]; compound 0.02 µM,8%
same,inhibition,[23]; compound 0.2 µM,-10.1%
same,inhibition,[24]; compound 0.02 µM,-6.9%
same,inhibition,[24]; compound 0.2 µM,-6.6%
same,inhibition,[25]; compound 0.02 µM,5.8%
same,inhibition,[25]; compound 0.2 µM,-8.2%
same,inhibition,[26]; compound 0.02 µM,1.7%
same,inhibition,[26]; compound 0.2 µM,0.5%
same,inhibition,[27]; compound 0.02 µM,-1.1%
same,inhibition,[27]; compound 0.2 µM,-0.8%
same,inhibition,[28]; compound 0.02 µM,1.2%
same,inhibition,[28]; compound 0.2 µM,1.7%
same,inhibition,[29]; compound 0.02 µM,11.1%
same,inhibition,[29]; compound 0.2 µM,20.6%
same,inhibition,[30]; compound 0.02 µM,0.1%
same,inhibition,[30]; compound 0.2 µM,7.5%
same,inhibition,[31]; compound 0.02 µM,7.3%
same,inhibition,[31]; compound 0.2 µM,46.6%
same,inhibition,[32]; compound 0.02 µM,2.2%
same,inhibition,[32]; compound 0.2 µM,6.7%
same,inhibition,[33]; compound 0.02 µM,3.7%
same,inhibition,[33]; compound 0.2 µM,7.2%
same,inhibition,[34]; compound 0.02 µM,2.3%
same,inhibition,[34]; compound 0.2 µM,10.6%
CNC(=O)c1ccccc1Sc1ccc2c(/C=C/c3ccccn3)n[nH]c2c1,inhibition,[1]; compound 0.001 µM,-2.1%
same,inhibition,[1]; compound 0.02 µM,42.3%
same,inhibition,[2]; compound 0.001 µM,-3.4%
same,inhibition,[2]; compound 0.02 µM,-4.5%
same,inhibition,[3]; compound 0.001 µM,3%
same,inhibition,[3]; compound 0.02 µM,2.4%
same,inhibition,[4]; compound 0.001 µM,-4.9%
same,inhibition,[4]; compound 0.02 µM,-5.8%
same,inhibition,[5]; compound 0.001 µM,-4.7%
same,inhibition,[5]; compound 0.02 µM,-6.4%
same,inhibition,[6]; compound 0.001 µM,3.6%
same,inhibition,[6]; compound 0.02 µM,-0.4%
same,inhibition,[7]; compound 0.001 µM,-4.8%
same,inhibition,[7]; compound 0.02 µM,2.3%
same,inhibition,[8]; compound 0.001 µM,-5.3%
same,inhibition,[8]; compound 0.02 µM,-3.9%
same,inhibition,[9]; compound 0.001 µM,10.6%
same,inhibition,[9]; compound 0.02 µM,54.1%
same,inhibition,[10]; compound 0.001 µM,0%
same,inhibition,[10]; compound 0.02 µM,-3.4%
same,inhibition,[11]; compound 0.001 µM,-2.8%
same,inhibition,[11]; compound 0.02 µM,-0.9%
same,inhibition,[12]; compound 0.001 µM,-12.5%
same,inhibition,[12]; compound 0.02 µM,4.3%
same,inhibition,[13]; compound 0.001 µM,4.6%
same,inhibition,[14]; compound 0.001 µM,47.3%
same,inhibition,[14]; compound 0.02 µM,97.4%
same,inhibition,[15]; compound 0.001 µM,-2.8%
same,inhibition,[15]; compound 0.02 µM,-3.8%
same,inhibition,[16]; compound 0.001 µM,-1%
same,inhibition,[17]; compound 0.001 µM,-7.5%
same,inhibition,[17]; compound 0.02 µM,-8.1%
same,inhibition,[18]; compound 0.001 µM,-7%
same,inhibition,[18]; compound 0.02 µM,0.1%
same,inhibition,[19]; compound 0.001 µM,-3.7%
same,inhibition,[19]; compound 0.02 µM,-5.3%
same,inhibition,[20]; compound 0.001 µM,-6.2%
same,inhibition,[20]; compound 0.02 µM,-3.3%
same,inhibition,[21]; compound 0.001 µM,4.4%
same,inhibition,[21]; compound 0.02 µM,2.5%
same,inhibition,[22]; compound 0.001 µM,-7.7%
same,inhibition,[22]; compound 0.02 µM,-5.9%
same,inhibition,[23]; compound 0.001 µM,7.1%
same,inhibition,[23]; compound 0.02 µM,10.1%
same,inhibition,[24]; compound 0.001 µM,-7.2%
same,inhibition,[24]; compound 0.02 µM,-7.8%
same,inhibition,[25]; compound 0.001 µM,4.4%
same,inhibition,[25]; compound 0.02 µM,-4.2%
same,inhibition,[26]; compound 0.001 µM,9.9%
same,inhibition,[26]; compound 0.02 µM,-1.9%
same,inhibition,[27]; compound 0.001 µM,-2.7%
same,inhibition,[27]; compound 0.02 µM,-2.2%
same,inhibition,[28]; compound 0.001 µM,-7%
same,inhibition,[28]; compound 0.02 µM,-0.1%
same,inhibition,[29]; compound 0.001 µM,6.6%
same,inhibition,[29]; compound 0.02 µM,10.6%
same,inhibition,[30]; compound 0.001 µM,8%
same,inhibition,[30]; compound 0.02 µM,-1.3%
same,inhibition,[31]; compound 0.001 µM,-6%
same,inhibition,[31]; compound 0.02 µM,1.4%
same,inhibition,[32]; compound 0.001 µM,-1.6%
same,inhibition,[32]; compound 0.02 µM,0%
same,inhibition,[33]; compound 0.001 µM,3.7%
same,inhibition,[33]; compound 0.02 µM,1.6%
same,inhibition,[34]; compound 0.001 µM,-1.2%
same,inhibition,[34]; compound 0.02 µM,-2%
